Results: US6350478B1, “Artemisia judaica fractionation method” (Phytotech Limited, priority 1996, dated 2002)

What was measured:
[1] = test system: Escherichia coli and Salmonella typhimurium; test: Ames bacterial mutagenicity test, liver fraction supplemented; type: cell-based; settings: Ames test with liver fraction
From the text: Escherichia coli and Salmonella typhimurium were used in the Ames test (B. N. Ames, J. McCann, E. Yamasaki—Mutation Res. 31 (1975) 347). The bacteria used carry a mutation which makes them dependent upon the presence of a specific nutrient medium for growth. If the test substance added to the growth medium of a plate of such bacteria is mutagenic, then a small proportion of the mutations it induces will cause the nutrient dependency mutation to revert, so that the bacteria will synthesise the nutrient and grow even in its absence. Observing whether colonies grow on nutrient deficient plates in the presence and absence of the test substance will thus reveal whether the substance is mutagenic and can give a measure of the mutagenicity of the substance.

STZ Diabetic Rats = test: Antidiabetic activity in STZ diabetic rats; type: in vivo, rat; settings: Extract 2 10-120 μg/ml po
Protocol: This extract, referred to as Extract 1 or Fraction 1, was tested in rats rendered diabetic by administration of Streptotozocin (STZ), and in in vitro tests for insulin-like activity. Toxicity was tested in a bacterial (Ames) mutagenicity test.
Urine was tested for the presence of ketones and glucose using Keto-Diabur Test 5000 sticks (Boehringer Mannheim, Lewes, UK). Glucose was assayed by the glucose oxidase method as described by Trinder (1969) using a kit supplied by the Sigma Chemical Co Ltd, Pool, UK)
The animals were monitored for 7 day periods before being made diabetic, after induction of diabetes by administration of STZ and during Artemisia treatment, so that each animal acted as its own control. Food intake rose after induction of diabetes and fell again following treatment with Artemisia.

glucagon response = test: Glycogen phosphorylase a activity in isolated hepatocytes in the presence of glucagon (glucagon antagonist activity); type: cell-based, rat; settings: Extract 1 200 μg/ml, Extract 3 1 ng/ml, Insulin 1 ng/ml
Protocol: (§1) Isolated hepatocytes were prepared from control animals by a modification of the double perfusior technique of Seglen (1973) involving anaesthetising he animal with halothane/nitrous oxide and inserting a cannula into the hepatic portal vein. The liver was subsequently perfused first with a calcium-free buffer and then with collagenase solution. The isolated cells were freed from the connective tissue by gentle combing. Hepatocytes were suspended in Ham's F-10 nutrient solution, Williams' medium E or Krebs-Henseleit medium depending on the assay to be performed.
(§2) Glycogen phosphorylase a activity, as an index of insulin-like or glucagon antagonist activity can be measured using falling logarithmic concentrations of analyte in the presence or absence of insulin or glucagon.
Isolated hepatocytes, suspended in Krebs-Henseleit solution at a concentration of 10^6 cells/ml, were treated with Artemisia extract at a concentration of […] (final concentration) in the presence or absence of insulin (10^−7M) or glucagon ([…]) for 2 minutes in a shaking water bath at 37° C. under constant oxygenation with 100% oxygen. The cells were subsequently centrifuged for 30s in a Beckman Microfuge and the pellet resuspended in MOPS buffer (pH 6.5) containing sodium fluoride (12.6 g/l), EDTA (1.85 g/l) and a dithiothreitol (0.31 g/l) at 10^6 cells/ml. […]

Glycogen phosphorylase a = Glycogen phosphorylase a activity in isolated rat hepatocytes (insulin-like activity); type: cell-based; settings: for Activity of liver cells: Glycogen Phosphorylase a activity: isolated rat hepatocytes, Extract 1 200 μg/ml, Extract 3 1 ng/ml, Insulin 1 ng/ml, Inositol 100-100 μg/ml
Protocol: as §1, §2
Isolated hepatocytes, suspended in Krebs-Henseleit solution at a concentration of 10^6 cells/ml, were treated with Artemisia extract at a concentration of […] (final concentration) in the presence or absence of insulin (10^−7M) or glucagon ([…]) for 2 minutes in a shaking water bath at 37° C. under constant oxygenation with 100% oxygen. The cells were subsequently centrifuged for 30s in a Beckman Microfuge and the pellet resuspended in MOPS buffer (pH 6.5) containing sodium fluoride (12.6 g/l), EDTA (1.85 g/l) and a dithiothreitol (0.31 g/l) at 10^6 cells/ml. The suspended cells were homogenised in a Potter-Elvehjem homogeniser and the homogenate centrifuged at 300×g in a Damon-IEC refrigerated centrifuge at 4° C. for 10 minutes. The resultant supernatant was used to assay for glycogen phosphorylase a activity as described by Preiksatis & Kunos (1979). This technique involves the measurement of [^14C]glycose-1-phosphate to glycogen conversion in the presence of caffeine to inhibit glycogen phosphorylase b activity.
Each fraction was carefully evaporated to dryness and weighed in a tared vessel. The dried samples were redissolved in methanol (100 μl) and (100 μl of H2O for the void volume) and subjected to chromatography. […]

[2] = test system: androst-4-ene 3, 17-dione metabolism; test: Steroid metabolism (androst-4-ene 3, 17-dione metabolism) of liver cells; type: cell-based, rat; settings: STZ diabetic rats; Extract 1 200 μg/ml, Extract 2 10-120 μg/ml, Extract 3 1 ng/ml, Insulin 1 ng/ml, Inositol 100-100 μg/ml
Protocol: Isolated hepatocytes were prepared from control animals by a modification of the double perfusior technique of Seglen (1973) involving […] animal with halothane/nitrous oxide and inserting a cannula into the hepatic portal vein. The liver was subsequently perfused first with a calcium-free buffer and then with collagenase solution. The isolated cells were freed from the connective tissue by gentle combing. Hepatocytes were suspended in Ham's F-10 nutrient solution, Williams' medium E or Krebs-Henseleit medium depending on the assay to be performed. The effects of Extract 1 on steroid metabolism in liver cells was also studied. The animals were killed by CO2 asphyxiation and the liver quickly exised and placed in ice-cold buffer (0.1M phosphate buffer, pH 7.4). The liver was homogenised using a Potter-Elvehjem homogeniser with a teflon pestle and microsomes were prepared by differential centrifugation. The microsomes were resuspended by gentle homogenisation in the same buffer. The protein content was measured by the method of Lowry using bovine serum albumin as standard and the microsomes were diluted by 10 mg protein/ml. The diluted microsomes were assayed for aniline 4-hydroxylase activity and aminopyrine N-demethylase activity (results not shown) and for androst-4-ene 3, 17-dione metabolism using published methodology. […]

[3] = dietary supplementation; The Lancet May 20, 1989; cited from earlier work
[4] = Extract 1 200 μg/ml po, Extract 3 1 ng/ml po, Insulin 1 ng/ml sc

Molecule	Bacterial mutagenicity [1]	Excessive food intake (STZ Diabetic Rats; Extract 1 200 μg/ml po (drinking water), Extract 3 1 ng/ml po, Insulin 1 ng/ml sc)	Diuresis (STZ Diabetic Rats; Extract 1 200 μg/ml po)	Glucosuria (STZ Diabetic Rats; [4])	Ketonuria (STZ Diabetic Rats; [4])	Weight gain (STZ Diabetic Rats; [4])	Activity of liver cells: Effect on glucagon response (glucagon response)	Activity of liver cells: Glycogen Phosphorylase a activity (Glycogen phosphorylase a)	Activity of liver cells: Steroid metabolism [2]	activity in the in vitro liver cell system (Glycogen phosphorylase a; levels of up to 1 mg/ml)	improvement of nerve function in the management of complications of diabetes mellitus [3]
Insulin	negative	reversed	reduced	reduced	reduced	normalised	reversed ***	decreased ***	restored *		
O[C@H]1[C@H](O)[C@@H](O)[C@H](O)[C@@H](O)[C@H]1O [Inositol]								negative	negative	inactive	no evidence
